Source: BindingDB's records for doi:10.1074/jbc.M113.480517 (University of Iowa, 2013)

Tests used:
Test in all cases: DNA Methylation Assay
Conditions in all cases: pH 7.5
[1] = biological target: T1, DNA (cytosine-5)-methyltransferase 1 [351-1600] (Homo sapiens, UniProt P26358)
T1 construct: 351-1600
Experimental: (§1) Assays (0.1 ml) were conducted in 96-well black half-area plates in either a Wallac VICTOR2 or Biotek Synergy Neo plate reader at 37 °C in 10 mM Tris, pH 7.5, 100 mM potassium glutamate, 1 mM MgCl2, 1 mM DTT, 0.1 mg/ml BSA, and 5% glycerol. […] Data were fitted using Prism (GraphPad Software, Inc).

[2] = biological target: T2, DNA (cytosine-5)-methyltransferase 3A [590-912] (Homo sapiens, UniProt Q9Y6K1)
T2 construct: 590-912
Experimental: as §1

[3] = biological target: Orphan methyltransferase M.SssI (Spiroplasma monobiae (strain ATCC 33825 / MQ-1), UniProt P15840)
Experimental: as §1

T1 sequence (P26358 351-1600): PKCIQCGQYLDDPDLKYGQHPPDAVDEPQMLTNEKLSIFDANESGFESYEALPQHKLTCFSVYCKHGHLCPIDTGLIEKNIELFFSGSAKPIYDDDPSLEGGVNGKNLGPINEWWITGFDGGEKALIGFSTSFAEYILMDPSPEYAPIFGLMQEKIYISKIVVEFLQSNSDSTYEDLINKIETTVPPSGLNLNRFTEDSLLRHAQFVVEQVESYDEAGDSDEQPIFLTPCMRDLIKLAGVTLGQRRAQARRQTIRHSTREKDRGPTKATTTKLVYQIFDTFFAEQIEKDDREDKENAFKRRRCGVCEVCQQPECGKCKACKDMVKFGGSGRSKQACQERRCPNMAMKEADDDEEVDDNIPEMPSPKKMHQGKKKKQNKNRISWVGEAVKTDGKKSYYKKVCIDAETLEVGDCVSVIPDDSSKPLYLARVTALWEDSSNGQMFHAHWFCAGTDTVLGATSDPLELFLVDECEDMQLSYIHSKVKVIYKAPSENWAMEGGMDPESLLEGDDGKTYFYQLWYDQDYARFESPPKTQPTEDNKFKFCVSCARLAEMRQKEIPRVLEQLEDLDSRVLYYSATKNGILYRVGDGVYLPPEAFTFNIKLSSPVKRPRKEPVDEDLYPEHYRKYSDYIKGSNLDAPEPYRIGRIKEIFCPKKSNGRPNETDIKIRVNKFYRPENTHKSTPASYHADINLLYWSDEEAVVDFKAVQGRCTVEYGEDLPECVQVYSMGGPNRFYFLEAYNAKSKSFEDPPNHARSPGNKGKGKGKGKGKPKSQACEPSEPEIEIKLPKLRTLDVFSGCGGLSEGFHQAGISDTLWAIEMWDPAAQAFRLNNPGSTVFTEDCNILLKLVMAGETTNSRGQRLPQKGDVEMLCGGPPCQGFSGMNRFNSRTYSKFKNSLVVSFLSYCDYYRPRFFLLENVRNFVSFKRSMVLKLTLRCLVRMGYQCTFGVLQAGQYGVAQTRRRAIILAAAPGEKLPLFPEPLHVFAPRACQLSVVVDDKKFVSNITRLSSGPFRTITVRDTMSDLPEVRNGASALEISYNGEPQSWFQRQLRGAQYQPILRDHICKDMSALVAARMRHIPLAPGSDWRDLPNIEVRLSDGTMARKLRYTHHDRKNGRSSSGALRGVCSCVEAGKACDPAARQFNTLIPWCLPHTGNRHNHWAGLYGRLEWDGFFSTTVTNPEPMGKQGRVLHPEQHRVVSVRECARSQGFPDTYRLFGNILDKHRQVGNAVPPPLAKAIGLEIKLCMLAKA
T2 sequence (Q9Y6K1 590-912): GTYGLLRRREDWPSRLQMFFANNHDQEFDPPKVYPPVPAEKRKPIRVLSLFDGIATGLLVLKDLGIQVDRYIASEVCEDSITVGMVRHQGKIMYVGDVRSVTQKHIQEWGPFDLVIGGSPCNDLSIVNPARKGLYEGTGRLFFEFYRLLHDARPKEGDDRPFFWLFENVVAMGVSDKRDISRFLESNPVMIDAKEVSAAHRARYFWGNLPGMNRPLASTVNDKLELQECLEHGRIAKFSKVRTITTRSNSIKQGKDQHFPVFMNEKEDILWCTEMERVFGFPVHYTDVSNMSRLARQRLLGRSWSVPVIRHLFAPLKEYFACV
Orphan methyltransferase M.SssI, sequence (P15840 whole entry): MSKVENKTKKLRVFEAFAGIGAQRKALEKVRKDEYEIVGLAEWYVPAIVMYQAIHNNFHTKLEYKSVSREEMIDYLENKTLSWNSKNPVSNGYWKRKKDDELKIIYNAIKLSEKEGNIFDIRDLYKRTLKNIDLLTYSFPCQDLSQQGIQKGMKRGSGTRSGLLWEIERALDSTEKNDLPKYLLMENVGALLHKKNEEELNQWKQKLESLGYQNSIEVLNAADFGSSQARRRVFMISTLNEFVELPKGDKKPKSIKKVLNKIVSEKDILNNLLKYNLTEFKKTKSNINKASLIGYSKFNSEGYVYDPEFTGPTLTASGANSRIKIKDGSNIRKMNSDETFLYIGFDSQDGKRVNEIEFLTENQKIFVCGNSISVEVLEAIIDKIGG

CC(=O)NCCc1ccc(O)c(-c2c(O)c(O)c3c(c2O)C(=O)c2c(cc(O)c(C(=O)O)c2C(=O)O)C3=O)c1
IC50 [1]: 19.1 µM | IC50 [2]: 50.5 µM | IC50 [3]: 53.6 µM
